Results published in patent US10342795B2, “Substituted 4,5,6,7-tetrahydro-pyrazolo[1,5-a]pyrimidine derivatives and 2,3-dihydro-1H-imidazo[1,2-b]pyrazole derivatives as ROS1 inhibitors” (Janssen Pharmaceutica NV, priority 2014, dated 2019).

Tests used:
[1] = tested on: HCC78 non-small cell lung cancer cells; test: HCC78 cell proliferation assay; assay type: cell-based; settings: Homo sapiens, HCC78, 96 h; -log EC50 (M); 4 days, MTT; read-out: HCC-78 PROL pEC50 (converted)
Protocol: Approximately 1000 HCC78 non-small cell lung cancer cells in 180 μl of cell culture medium (RPMI-1640, 10% FBS, 2 mM L-Glutamine, 10 mM Hepes, 1 mM sodium pyruvate, 4.5 g/L glucose, 1.5 g/L sodium bicarbonate, 25 μg/ml Gentamycin) were seeded in each well of a 96-well polystyrene, tissue-culture treated plate and incubated at 37° C. and 5% CO2. After 24 hours, compounds were diluted in cell culture medium from which 20 μl was added to the wells containing cells and incubated for 4 days at 37° C. and 5% CO2. A 5 mg/ml solution of the tetrazolium dye MTT was prepared in PBS (phosphate-buffered saline) and 25 μl was added to each well. After 2 hours the medium was removed and replaced by 125 μL of 4/1 DMSO/glycine buffer (0.1M glycine, 0.1M NaCl, pH 10.5) before absorbance was determined at 538 nm.

Ros1 enzyme = molecular target: T1, Ros1 enzyme (Homo sapiens, UniProt P08922); test: Ros1 enzymatic assay; assay type: biochemical; settings: -log IC50 (M); 20 μM ATP, 120 min at room temperature; read-out: ROS1 pIC50 (converted)
T1 construct: 0.5 μg/ml Ros1 enzyme
Protocol: Compounds were spotted onto white 384-well Proxiplate plus plates (Perkin Elmer) to which 5 μl of enzyme mix (0.5 μg/ml Ros1 enzyme, 50 mM Tris-HCl pH7.5, 1 mM EGTA, 10 mM MgCl2, 0.01% Tween-20) and 5 μl of substrate mix (6 μg/ml IRS-Tide [American Peptide Company], 20 μM ATP, 13.33 μCi/ml ATP (adenosine 5′-triphosphate) P^33, 50 mM Tris-HCl pH7.5, 1 mM EGTA (ethylene glycol-bis(2-aminoethylether)-N,N,N′,N′-tetraacetic acid), 10 mM MgCl2, 0.01% Tween-20) were added. After incubation for 120 minutes at room temperature, 10 μl of stop reaction buffer (5 mM EDTA, 50 μM ATP, 0.1% BSA (bovine serum albumin), 0.1% Triton X-100, 50 mM Tris-HCl pH7.5, 1 mM EGTA, 10 mM MgCl2, 0.01% Tween-20) containing 2 mg/ml streptavidin coupled polystyrene imaging beads (Amersham Biosciences) was added and incubated for 15 minutes at room temperature. Plates were centrifuged for 3 minutes at 1500 rpm and signals detected in a LEADseeker imaging system (GE).

[2] = molecular target: Ba/F3 cells containing Ros1 wild-type protein (Homo sapiens, UniProt P08922, cells depend on it, form not given); test: Ba/F3-Ros1 cell proliferation assay, wild-type Ros1, without IL-3; assay type: cell-based, murine; settings: -log IC50 (M); wild-type Ros1, no IL-3, 24 h, Alamar Blue
Protocol: (§1) This assay was carried out with Ba/F3 cells containing three different versions of Ros1: the wild-type protein, protein with a mutation at the gatekeeper residue (L2026M), and protein with a mutation identified in a tumor from a patient that became resistant to crizotinib (Xalkori®) treatment (G2032R). Compounds were solubilized in 100% DMSO (dimethyl sulfoxide) and sprayed into polystyrene, tissue culture treated 384-well plates. A 50 μl volume of cell culture medium (phenol red free RPMI-1640, 10% FBS (fetal bovine serum), 2 mM L-Glutamine) containing 20000 Ba/F3-Ros1 cells was added to each well and the plates were placed in an incubator at 37° C. and 5% CO2. After 24 hours, 10 μl of Alamar Blue solution (0.5 mM K3Fe(CN)6, 0.5 mM K4Fe(CN)6, 0.15 mM Resazurin and 100 mM Phosphate Buffer) was added to the wells, incubated for 4 hours at 37° C. and 5% CO2 before RFU's (Relative Fluorescence Units) (ex. 540 nm., em. 590 nm.) were measured in a fluorescence plate reader.

[3] = molecular target: Ba/F3 cells containing Ros1 L2026M (Homo sapiens, UniProt P08922, L2026M, cells depend on it, form not given); test: Ba/F3-Ros1 cell proliferation assay, L2026M gatekeeper mutant; assay type: cell-based, murine; settings: -log IC50 (M), no IL-3
Protocol: as §1

[4] = tested on: Ba/F3 cells containing Ros1 wild-type protein + IL-3; test: Ba/F3-Ros1 cell proliferation counter-screen, wild-type Ros1 in the presence of murine IL-3; assay type: cell-based; settings: Mus musculus, BaF3, 24 h; -log IC50 (M); wild-type Ros1, 10 ng/ml murine IL-3 (counter-screen); read-out: BaF3-ROS1 + IL3 pIC50 (converted)
Protocol: as §1
As a counter-screen the same experiment was performed for the wild-type protein in the presence of 10 ng/ml murine IL-3.

[5] = molecular target: Ba/F3 cells containing Ros1 G2032R (Homo sapiens, UniProt P08922, G2032R, cells depend on it, form not given); test: Ba/F3-Ros1 cell proliferation assay, G2032R mutant; assay type: cell-based, murine; settings: -log IC50 (M), no IL-3
Protocol: as §1

Ba/F3 cells containing Ros1 L2026M, sequence (P08922 whole entry L2026M, form open): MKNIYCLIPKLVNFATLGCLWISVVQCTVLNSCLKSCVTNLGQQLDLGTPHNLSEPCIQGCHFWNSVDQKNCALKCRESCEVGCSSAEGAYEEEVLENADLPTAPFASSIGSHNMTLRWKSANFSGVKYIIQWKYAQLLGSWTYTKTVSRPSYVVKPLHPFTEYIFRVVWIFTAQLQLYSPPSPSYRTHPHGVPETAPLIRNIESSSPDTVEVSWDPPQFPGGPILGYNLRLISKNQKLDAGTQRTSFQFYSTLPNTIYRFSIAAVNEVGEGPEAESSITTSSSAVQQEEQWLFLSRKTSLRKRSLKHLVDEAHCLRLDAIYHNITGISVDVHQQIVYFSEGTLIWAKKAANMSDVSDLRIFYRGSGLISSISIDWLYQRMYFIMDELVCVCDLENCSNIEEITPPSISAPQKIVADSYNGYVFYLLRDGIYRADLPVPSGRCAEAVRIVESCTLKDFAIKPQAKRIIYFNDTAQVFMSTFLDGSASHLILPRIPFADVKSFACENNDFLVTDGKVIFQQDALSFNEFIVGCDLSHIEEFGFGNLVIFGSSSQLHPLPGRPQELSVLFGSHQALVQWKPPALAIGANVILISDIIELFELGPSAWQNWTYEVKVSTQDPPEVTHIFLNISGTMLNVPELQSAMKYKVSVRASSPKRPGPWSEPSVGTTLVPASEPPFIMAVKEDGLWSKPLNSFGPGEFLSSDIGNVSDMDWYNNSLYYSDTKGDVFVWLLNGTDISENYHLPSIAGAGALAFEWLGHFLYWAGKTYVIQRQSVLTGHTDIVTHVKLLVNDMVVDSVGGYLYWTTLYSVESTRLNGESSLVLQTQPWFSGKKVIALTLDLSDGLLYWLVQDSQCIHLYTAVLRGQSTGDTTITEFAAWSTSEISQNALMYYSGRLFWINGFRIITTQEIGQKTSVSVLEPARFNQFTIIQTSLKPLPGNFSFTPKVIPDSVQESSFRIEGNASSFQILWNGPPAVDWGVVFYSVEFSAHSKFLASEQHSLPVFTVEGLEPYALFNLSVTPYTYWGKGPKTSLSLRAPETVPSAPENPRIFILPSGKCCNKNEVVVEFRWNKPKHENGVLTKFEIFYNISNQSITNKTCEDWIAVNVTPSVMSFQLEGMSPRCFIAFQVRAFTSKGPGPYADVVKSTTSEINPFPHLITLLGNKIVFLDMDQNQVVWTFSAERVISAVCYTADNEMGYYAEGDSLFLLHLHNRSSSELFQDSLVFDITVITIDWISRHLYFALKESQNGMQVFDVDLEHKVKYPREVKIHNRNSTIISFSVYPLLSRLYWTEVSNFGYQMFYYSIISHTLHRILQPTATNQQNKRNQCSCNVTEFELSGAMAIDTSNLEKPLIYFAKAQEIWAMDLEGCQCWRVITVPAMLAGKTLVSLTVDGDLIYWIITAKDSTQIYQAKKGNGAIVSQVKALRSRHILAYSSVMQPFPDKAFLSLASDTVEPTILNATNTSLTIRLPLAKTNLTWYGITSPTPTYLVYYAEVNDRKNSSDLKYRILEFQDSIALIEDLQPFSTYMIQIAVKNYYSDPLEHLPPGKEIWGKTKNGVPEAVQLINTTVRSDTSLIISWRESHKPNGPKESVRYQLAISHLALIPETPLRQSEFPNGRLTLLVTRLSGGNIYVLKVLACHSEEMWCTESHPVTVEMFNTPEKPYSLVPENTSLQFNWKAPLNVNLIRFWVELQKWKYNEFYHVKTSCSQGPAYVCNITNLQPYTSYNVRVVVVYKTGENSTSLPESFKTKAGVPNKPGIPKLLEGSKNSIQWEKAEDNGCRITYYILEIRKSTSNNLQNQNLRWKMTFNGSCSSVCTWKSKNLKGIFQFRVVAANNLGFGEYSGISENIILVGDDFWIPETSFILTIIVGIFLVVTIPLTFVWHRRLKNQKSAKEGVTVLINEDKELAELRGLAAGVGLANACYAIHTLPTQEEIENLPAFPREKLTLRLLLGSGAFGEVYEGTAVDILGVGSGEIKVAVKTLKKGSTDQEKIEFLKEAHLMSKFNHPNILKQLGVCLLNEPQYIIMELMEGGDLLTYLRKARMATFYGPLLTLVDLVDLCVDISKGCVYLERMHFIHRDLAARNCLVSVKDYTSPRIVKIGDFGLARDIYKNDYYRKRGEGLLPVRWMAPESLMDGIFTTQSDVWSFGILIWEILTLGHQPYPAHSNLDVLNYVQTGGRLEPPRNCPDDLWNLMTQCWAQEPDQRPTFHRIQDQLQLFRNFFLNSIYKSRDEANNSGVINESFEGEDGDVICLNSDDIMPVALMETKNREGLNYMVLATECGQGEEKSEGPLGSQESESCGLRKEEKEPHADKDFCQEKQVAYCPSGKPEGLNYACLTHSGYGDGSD
T1 sequence (P08922 28-2347): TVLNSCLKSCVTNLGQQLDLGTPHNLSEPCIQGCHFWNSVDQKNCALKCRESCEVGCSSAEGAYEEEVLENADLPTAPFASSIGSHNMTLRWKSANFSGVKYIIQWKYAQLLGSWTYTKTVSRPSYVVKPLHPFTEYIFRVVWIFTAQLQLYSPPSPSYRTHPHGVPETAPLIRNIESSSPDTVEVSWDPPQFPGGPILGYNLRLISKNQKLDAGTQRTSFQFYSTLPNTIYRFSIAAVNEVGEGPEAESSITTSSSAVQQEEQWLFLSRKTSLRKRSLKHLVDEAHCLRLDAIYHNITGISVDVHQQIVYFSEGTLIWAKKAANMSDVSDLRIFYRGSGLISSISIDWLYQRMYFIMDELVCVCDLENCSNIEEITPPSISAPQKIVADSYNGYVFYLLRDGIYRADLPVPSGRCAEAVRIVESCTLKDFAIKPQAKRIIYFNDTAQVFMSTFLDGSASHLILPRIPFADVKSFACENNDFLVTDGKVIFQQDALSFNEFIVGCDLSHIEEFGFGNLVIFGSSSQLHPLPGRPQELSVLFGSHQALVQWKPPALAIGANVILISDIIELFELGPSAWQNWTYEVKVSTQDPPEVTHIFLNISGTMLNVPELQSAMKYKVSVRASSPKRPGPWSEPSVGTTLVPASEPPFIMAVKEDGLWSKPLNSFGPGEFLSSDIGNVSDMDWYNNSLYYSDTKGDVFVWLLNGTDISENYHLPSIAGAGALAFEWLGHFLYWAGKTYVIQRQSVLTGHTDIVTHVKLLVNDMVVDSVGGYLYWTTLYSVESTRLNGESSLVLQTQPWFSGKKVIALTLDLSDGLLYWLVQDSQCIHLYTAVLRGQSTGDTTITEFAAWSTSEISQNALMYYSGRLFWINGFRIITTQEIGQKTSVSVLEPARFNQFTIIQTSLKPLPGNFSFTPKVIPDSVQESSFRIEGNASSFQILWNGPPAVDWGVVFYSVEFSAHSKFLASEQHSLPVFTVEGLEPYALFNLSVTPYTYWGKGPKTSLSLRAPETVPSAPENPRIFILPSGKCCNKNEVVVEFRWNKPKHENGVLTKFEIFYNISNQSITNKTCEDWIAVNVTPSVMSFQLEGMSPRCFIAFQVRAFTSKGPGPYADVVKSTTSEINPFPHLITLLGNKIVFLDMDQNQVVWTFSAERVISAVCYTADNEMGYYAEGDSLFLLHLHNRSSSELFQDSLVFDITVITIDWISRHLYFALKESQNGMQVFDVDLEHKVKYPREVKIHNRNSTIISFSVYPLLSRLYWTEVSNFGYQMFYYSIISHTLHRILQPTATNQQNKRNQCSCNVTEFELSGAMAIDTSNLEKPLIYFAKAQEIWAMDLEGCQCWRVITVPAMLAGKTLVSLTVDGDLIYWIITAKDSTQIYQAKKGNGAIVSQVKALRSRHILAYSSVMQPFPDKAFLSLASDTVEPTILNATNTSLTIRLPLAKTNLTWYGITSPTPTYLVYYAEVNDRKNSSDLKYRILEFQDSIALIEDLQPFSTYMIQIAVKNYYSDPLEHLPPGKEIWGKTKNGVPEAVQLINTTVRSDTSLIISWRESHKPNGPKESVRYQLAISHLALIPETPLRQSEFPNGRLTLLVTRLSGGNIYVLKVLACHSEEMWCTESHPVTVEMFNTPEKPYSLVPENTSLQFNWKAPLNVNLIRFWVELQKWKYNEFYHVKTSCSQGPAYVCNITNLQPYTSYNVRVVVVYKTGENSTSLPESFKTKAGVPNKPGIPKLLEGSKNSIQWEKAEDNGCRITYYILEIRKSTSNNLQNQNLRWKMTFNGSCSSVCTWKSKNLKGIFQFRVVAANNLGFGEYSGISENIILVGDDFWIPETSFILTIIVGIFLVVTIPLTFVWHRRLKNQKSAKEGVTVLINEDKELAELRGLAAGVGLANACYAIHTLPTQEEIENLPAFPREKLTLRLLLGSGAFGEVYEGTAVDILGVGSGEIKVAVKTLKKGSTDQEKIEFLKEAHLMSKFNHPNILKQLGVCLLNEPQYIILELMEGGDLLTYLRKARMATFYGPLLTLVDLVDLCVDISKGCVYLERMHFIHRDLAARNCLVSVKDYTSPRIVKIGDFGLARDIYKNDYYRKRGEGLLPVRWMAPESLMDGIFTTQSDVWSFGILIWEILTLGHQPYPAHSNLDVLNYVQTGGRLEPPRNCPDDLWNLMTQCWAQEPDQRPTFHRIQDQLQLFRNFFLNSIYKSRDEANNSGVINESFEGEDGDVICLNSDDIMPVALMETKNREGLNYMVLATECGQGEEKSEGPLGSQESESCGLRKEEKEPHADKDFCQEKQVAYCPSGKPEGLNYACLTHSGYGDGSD
Ba/F3 cells containing Ros1 wild-type protein, sequence (P08922 whole entry, stated change not applied): as the sequence (P08922 whole entry L2026M, form open) above, with M2026L counted along it
Ba/F3 cells containing Ros1 G2032R, sequence (P08922 whole entry G2032R, form open): as the sequence (P08922 whole entry L2026M, form open) above, with M2026L, G2032R counted along it

Row | SMILES | melting point | EC50 [1] | IC50 (Ros1 enzyme) | BaF3-ROS1 − IL3 pIC50 [2] | Ba/F3 Ros1 L2026M (-IL-3) pIC50 [3] | Ba/3 Ros1 G2032R (-IL-3) pIC50 [5] | CC50 [4]
1 | CC(C)c1ccc(COc2cc(F)c(-c3c(-c4ccncc4)nn4c3NCC4)cc2F)cc1 [Co. 2] | 153 °C | 1.26e-08 M | 2.51e-08 M | ~8.03 | 7.7 |  | > 1e-05 M
2 | CC(C)c1ccc(COc2ccc(-c3c(-c4ccncc4)nn4c3NCC4)c(C#N)c2)cc1 [Co. 3] | 191 °C |  | 6.31e-08 M | 7.2 | 6.6 |  | > 1e-05 M
3 | CC(C)c1ccc(COc2ccc(-c3c(-c4ccncc4)nn4c3NCC4)cn2)cc1 [Co. 4] | 159 °C | 6.31e-07 M | 1e-07 M | 7.1 | 7.1 |  | 1.26e-06 M
4 | CC(C)c1ccc(COc2ccc(-c3c(-c4ccncc4)nn4c3NCC4)c(F)c2)cc1 [Co. 5] | 141 °C | 7.94e-07 M | ~1.26e-07 M | 7.1 | <5 | 6.7 | > 1e-05 M
5 | CC(C)c1ccc(COc2ccc(-c3c(-c4ccncc4)nn4c3NCC4)cc2)cc1C#N [Co. 6] | 158 °C |  | 2e-07 M | 6.7 | 6.4 |  | > 1e-05 M
6 | CC(C)c1ccc(COc2ccc(-c3c(-c4ccncc4)nn4c3NCC4)cc2)c(F)c1F [Co. 8] | 149 °C | 2e-06 M | 1.58e-06 M | 6.3 | 7.5 |  | 3.98e-06 M
7 | CC(C)c1ccc(COc2ccc(-c3c(-c4ccncc4)nn4c3NCC4)cc2)cc1CC(O)CO (centres unmarked) [Co. 9] |  | 5.01e-07 M | 6.31e-08 M | 7.3 | 5.5 |  | > 1e-05 M
8 | CC(C)c1ccc(COc2ccc(-c3c(-c4ccncc4)nn4c3N(CCCN)CC4)cc2)cc1 [Co. 12] |  | 1.58e-06 M | 5.01e-07 M | 6.3 | 6 |  | ~4.47e-06 M
9 | CC(C)c1ccc(COc2ccc(-c3c(-c4ccncn4)nn4c3NCC4)cc2)cc1 [Co. 14] | 109 °C | 1e-06 M | 3.98e-07 M | 6.5 | 6.6 |  | ~7.41e-06 M
10 | CC(C)c1ccc(COc2ccc(-c3c(-c4ccncn4)nn4c3NCC4)c(F)c2)cc1 [Co. 15] |  | 6.31e-07 M | 2.51e-07 M | 6.8 | <5 |  | > 1e-05 M
11 | CC(C)c1ccc(COc2ccc(-c3c(-c4ccncc4)nn4c3NCCC4)c(F)c2)cc1 [Co. 18] | 188 °C | 3.98e-07 M | 2e-08 M | 7.6 | 7.8 |  | > 1e-05 M
12 | CC(C)c1ccc(COc2ccc(-c3c(-c4ccncc4)nn4c3N(C)C(=O)CC4)cc2)cc1 [Co. 22] | 160 °C |  | 5.01e-07 M | 6.4 |  |  | > 1e-05 M
13 | CC(C)c1ccc(COc2ccc(-c3c(-c4ccncc4)nn4c3NC(CO)CC4)c(F)c2)cc1 (centres unmarked) [Co. 23] |  | 1e-07 M | 3.16e-08 M | 7.9 | 7.8 |  | > 1e-05 M
14 | CC(C)c1ccc(COc2ccc(-c3c(-c4ccncc4)nn4cccnc34)c(F)c2)cc1 [Co. B] | 187 °C |  | 2.51e-08 M | 7.2 |  |  | > 1e-05 M
15 | Cc1ccn2nc(-c3ccncc3)c(-c3ccc(OCc4ccc(C(C)C)cc4)cc3F)c2n1 [Co. C] |  | 2e-07 M | 3.16e-08 M | 7.5 | 7.5 |  | > 1e-05 M
16 | CC(C)c1ccc(COc2ccc(-c3c(-c4ccncc4)nn4ccc(=O)[nH]c34)cc2)cc1 [Co. E] | 243 °C | 5.01e-07 M | 6.31e-08 M | 7.1 | 6.9 |  | > 1e-05 M
17 | COC(=O)c1ccn2nc(-c3ccncc3)c(-c3ccc(OCc4ccc(C(C)C)cc4)cc3)c2n1 [Co. G] |  |  | 1e-06 M | <5 |  |  | > 1e-05 M
18 | CCOC(=O)c1ccnc2c(-c3ccc(OCc4ccc(C(C)C)cc4)cc3)c(-c3ccncc3)nn12 [Co. H] | 140 °C |  | 5.01e-07 M | 5.8 |  |  | > 1e-05 M
19 | CNC(=O)c1ccnc2c(-c3ccc(OCc4ccc(C(C)C)cc4)cc3)c(-c3ccncc3)nn12 [Co. J] | 207 °C | 2e-06 M | 5.01e-07 M | 6.8 | 6.8 |  | > 1e-05 M

Further lines, with some results ahead:

Row | melting point | EC50 [1] | IC50 (Ros1 enzyme) | BaF3-ROS1 − IL3 pIC50 [2] | Ba/F3 Ros1 L2026M (-IL-3) pIC50 [3] | Ba/3 Ros1 G2032R (-IL-3) pIC50 [5] | SMILES | CC50 [4]
20 |  | 7.94e-07 M | 2.51e-07 M | 7.0 | 6.8 |  | CC(C)c1ccc(COc2ccc(-c3c(-c4ccncc4)nn4c3NC(CO)C4)cc2)cc1 (centres unmarked) [Co. 11] | 2.51e-06 M
21 | 120 °C | 7.94e-07 M | 1e-07 M | 6.7 | 6.4 |  | CC(C)c1ccc(COc2ccc(-c3c(-c4ccncc4)nn4c3N(C)CCC4)cc2)cc1 [Co. 19] | > 1e-05 M
22 | 205 °C |  | 3.16e-07 M | 6.8 |  |  | CC(C)c1ccc(COc2ccc(-c3c(-c4ccncc4)nn4c3N(CCO)C(=O)CC4)cc2)cc1 [Co. 20] | > 1e-05 M
23 | 147 °C |  | 6.31e-08 M | 7.4 | 6.9 |  | CC(C)c1ccc(COc2ccc(-c3c(-c4ccncc4)nn4c3N(CCO)CCC4)cc2)cc1 [Co. 21] | > 1e-05 M
24 | 199 °C | 7.94e-08 M | 6.31e-08 M | 7.5 | 7.6 |  | CC(C)c1ccc(COc2ccc(-c3c(-c4ccncc4)nn4c3NC(CO)CC4)cc2)cc1 (centres unmarked) [Co. 24] | 7.94e-06 M
25 | 155 °C | 7.94e-07 M | 1.26e-07 M | 7.0 | 6.8 |  | CC(C)c1ccc(COc2ccc(-c3c(-c4ccncc4)nn4c3NCCC4CO)cc2)cc1 (centres unmarked) [Co. 25] | > 1e-05 M
26 |  | 1.58e-07 M | 3.16e-08 M | 7.1 | 6.7 |  | CNC(=O)C1CCNc2c(-c3ccc(OCc4ccc(C(C)C)cc4)cc3)c(-c3ccncc3)nn21 (centres unmarked) [Co. 26] | > 1e-05 M
27 |  |  | 5.01e-07 M | 6.3 | 5.5 |  | CNCC1CCNc2c(-c3ccc(OCc4ccc(C(C)C)cc4)cc3)c(-c3ccncc3)nn21 (centres unmarked) [Co. 27] | ~6.31e-06 M
28 |  |  | 7.94e-08 M | 6.8 |  |  | CC(C)c1ccc(COc2ccc(-c3c(-c4ccncc4)nn4cccnc34)cc2)cc1 [Co. A] | > 1e-05 M
